In one data set the test system is Escherichia coli. As to the kind of experiment: Effect on the intestinal bacterial colonies: E. coli count in mouse feces. The class given is in vivo. The protocol:
(§1) Each of the cephalosporin derivatives of the invention prepared in Examples 1 to 4 was orally administered to mice (one group consisting of five female ICR mice of 6-week-old) for two consecutive days at a dose of 500 mg/kg/day.
(§2) Before and one day after the administration, feces of each mouse was collected and diluted with an anaerobic diluent (phosphoric buffer solution) of 100 times by volume and the diluted feces was ground. 0.1 ml of the diluted and ground feces was smeared on each culture medium shown in Table 1 and cultured aerobically or anaerobically (according to the anaerobic glove box method) under each condition shown in Table 1 and the number of each bacterium shown in Table 1 was counted.
DHL agar aerobic, 37° C.,

The next data set concerns Pseudomonas aeruginosa. As to the kind of experiment: Effect on the intestinal bacterial colonies: Ps. aeruginosa count in mouse feces. The class given is in vivo. How it is done: as §1, §2
NAC agar aerobic, 37° C.,

A further data set concerns Streptococcus spp. Put plainly: Effect on the intestinal bacterial colonies: Streptococcus spp. count in mouse feces. The class given is in vivo. How it is done:
as §1, §2
TATAC agar aerobic, 37° C.,

Data set [1] has as its system Lactobacillus acidophilus. As to the kind of experiment: Effect on the intestinal bacterial colonies: L. acidophilus count in mouse feces. The class given is in vivo. How it is done:
as §1, §2
Lactobacillus acidophilus
LBS agar anaerobic, 37° C.,

A further data set deals with Lactobacillus bifidus. Put plainly: Effect on the intestinal bacterial colonies: L. bifidus count in mouse feces. The class given is in vivo. The protocol:
as §1, §2
BS agar anaerobic, 37° C.,

For the next data set, the system named is Bacteroides. As to the kind of experiment: Effect on the intestinal bacterial colonies: Bacteroides count in mouse feces. The class given is in vivo. The protocol: as §1, §2
Bacteroides NBGT agar anaerobic, 37° C.,

Data set [2] deals with Escherichia coli IFO 12734. As to the kind of experiment: Antibacterial activity (MIC), agar plate, E. coli. The class given is cell-based. On the set-up: unit not given beside the values. To be noted: Mueller-Hinton agar, 37° C., 18 to 24 hours; unit not given. How it is done:
(§3) Antibacterial activity of each of the cephalosporin derivatives of the invention prepared in Examples 1 to 4 was examined against the following two bacteria according to the standard method of Japan Society of Chemitherapy: Escherichia coli IFO 12734 and Staphylococcus aureus IAM 1011.
(§4) Each bacterial strain was inoculated into the Mueller-Hinton's culture medium and cultured at 37° C. for 18 to 48 hours. The cultured medium was diluted so as to contain 1×10^6 cells of the bacteria per one ml, and the obtained medium was used as the bacterial specimen.
(§5) Agar plates were prepared by adding one part by weight of each solution of the cephalosporin derivative of the invention at a predetermined concentration to nine parts by weight of Mueller-Hinton's culture medium.
(§6) A loopful amount of the bacterial specimen prepared above was smeared to make a streak of about 2 cm on each agar plate prepared above and cultured at 37° C. for 18 to 24 hours.
(§7) The minimum concentration for completely inhibiting proliferation of the bacteria (referred to as MIC) was determined.

For data set [3], the system named is Staphylococcus aureus IAM 1011. As to the kind of experiment: Antibacterial activity (MIC), agar plate, Staph. aureus. As to conditions: Mueller-Hinton agar, 37° C., 18 to 24 hours; unit not given. The class given is cell-based. Details: unit not given beside the values. How it is done:
as §3, §4, §5, §6, §7

In data set [4] the test system is Staphylococcus aureus IAM 1011. As to the kind of experiment: Activation by rat liver homogenate (S-9 mix), proliferation-inhibiting circle, penicillin cup. For all read-outs here: ranges in brackets are in %. To be noted: 37° C., 20 min, ratio of circle diameter to that of the starting compound; for Proliferation-inhibiting index, before adding S-9 mix (control): phosphoric buffer instead of S-9 mix; for Proliferation-inhibiting index, after adding S-9 mix: rat liver S-9 mix. The class given is cell-based. How it is done:
As an activating enzyme of metabolism, a rat liver homogenate (S-9, manufactured by Oriental Yeast Company, Japan) was used in the following composition per 1 ml (hereinafter referred to as S-9 mix). |S-9 0.5 ml |KCl 3.3 μmol |MgCl2.6H2 O 8 μmol |Glucose 6-phosphate 5 μmol |NADH 4 μmol |NADPH 4 μmol |0.2 M phosphoric buffer solution | 0.5 ml |(pH of 7.4) 0.1 ml of the solution of each of the cephalosporin derivatives of the invention prepared in Examples 1 to 4 at a concentration of 100 μg/ml was mixed with 0.9 ml of S-9 mix or 0.9 ml of 0.1 M phosphoric buffer solution (as a control) and the obtained mixture was incubated at 37° C. for 20 min with shaking. Staphylococcus aureus IAM 1011 was inoculated into a Mueller-Hinton's culture medium and cultured at 37° C. for 18 hours. The culture medium was adjusted to a cell concentration of 1×10^8 per 1 ml and mixed with 50 times by volume of Mueller-Hinton's agar culture medium to obtain an agar plate. A penicillin cup of 8 mm in diameter was placed on the agar plate prepared above, and into the cup 0.1 ml of the mixture containing the cephalosporin derivative prepared above was introduced and allowed to stand at 4° C. for 2 hours, and then cultured at 37° C. for 18 hours to measure the diameter of a circle in which the proliferation of bacteria was inhibited (proliferation-inhibiting circle). In Table 4, the proliferation-inhibiting index is shown in the ratio (%) of the diameter of the proliferation-inhibiting circle obtained by using each of the cephalosporin derivatives of the invention to that obtained by using each of the starting compound in preparing each of the cephalosporin derivatives of the invention.

The mark [5] stands for this setting: female ICR mice, oral 500 mg/kg/day for two days, one day after administration, before administration 6.4.

On to `CC(=O)OCC1=C(C(=O)O)N2C(=O)[C@@H](NC(=O)Cc3cccs3)[C@H]2SC1` [Cephalotin, reference compound], for which the “change of the number of Escherichia coli compared to before administration” value in the data set on Escherichia coli (in vivo) is reported as “increased”. In the data set on Escherichia coli (in vivo, po, 500 mg/kg/day), the “Logarithmic value of the number of bacterial cells per one g of feces: E. coli” value (“Logarithmic value … per one g of feces: E. coli” for short) is given as 9.9 Logarithmic value of the numbe. The “Logarithmic value of the number of bacterial cells per one g of feces: Ps. aeruginosa” value in the data set on Pseudomonas aeruginosa (female ICR mice, oral 500 mg/kg/day for two days, one day after administration, before administration <3.0) is recorded as < 3.0 Logarithmic value of the numbe. The “Logarithmic value of the number of bacterial cells per one g of feces: Strept. spp.” value with Streptococcus spp. (female ICR mice, oral 500 mg/kg/day for two days, one day after administration, before administration 6.8) was 9.0 Logarithmic value of the numbe. Also, in data set [1] (female ICR mice, oral 500 mg/kg/day for two days, one day after administration, before administration 9.0), the “Logarithmic value of the number of bacterial cells per one g of feces: L. acidophilus” value was 4.1 Logarithmic value of the numbe. The “change of Lactobacillus acidophilus” value in [1] (mouse feces, result in words) was “decreased”. Moreover, in the data set on Lactobacillus bifidus (female ICR mice, oral 500 mg/kg/day for two days, one day after administration, before administration 8.4), the “Logarithmic value of the number of bacterial cells per one g of feces: L. bifidus” value is recorded as 9.2 Logarithmic value of the numbe. In addition, in the data set with Bacteroides (female ICR mice, oral 500 mg/kg/day for two days, one day after administration, before administration 8.3), the “Logarithmic value of the number of bacterial cells per one g of feces: Bacteroides” value is on record as 7.2 Logarithmic value of the numbe.
Regarding `COC(=O)C[C@H](NC(=O)C1=C(COC(C)=O)CSC2C(NC(=O)Cc3cccs3)C(=O)N12)C(=O)OC` (stereo partly drawn) [Example 1, N-[1,2-bis(carbomethoxy)ethyl]-7-(thienyl-2-acetamido)cephalosporanic acid amide], the “Logarithmic value … per one g of feces: E. coli” value in the data set with Escherichia coli (setting [5]) is recorded as 6.3 Logarithmic value of the numbe. For the same compound, in the data set on Pseudomonas aeruginosa (in vivo, po, 500 mg/kg/day), the “Logarithmic value of the number of bacterial cells per one g of feces: Ps. aeruginosa” value is < 3.3 Logarithmic value of the numbe. Also, the “Logarithmic value of the number of bacterial cells per one g of feces: Strept. spp.” value in the data set on Streptococcus spp. (in vivo, po, 500 mg/kg/day) is listed as 7.0 Logarithmic value of the numbe. In addition, in [1] (in vivo, po, 500 mg/kg/day), the “Logarithmic value of the number of bacterial cells per one g of feces: L. acidophilus” value is recorded as 9.0 Logarithmic value of the numbe. Moreover, the “Logarithmic value of the number of bacterial cells per one g of feces: L. bifidus” value in the data set with Lactobacillus bifidus (in vivo, po, 500 mg/kg/day) is 8.6 Logarithmic value of the numbe. Further, in the data set on Bacteroides (in vivo, po, 500 mg/kg/day), the “Logarithmic value of the number of bacterial cells per one g of feces: Bacteroides” value is on record as 8.5 Logarithmic value of the numbe. For the same compound, in [2], the “MIC, E. coli” value was ≥ 100. Further, the “MIC, Staph. aureus” value in data set [3] is recorded as ≥ 12.5. In addition, in data set [4], the “Proliferation-inhibiting index, before adding S-9 mix (control)” value (from here on “Proliferation-inhibiting index … (control)”) was “- (0)” and the “Proliferation-inhibiting index, after adding S-9 mix” value is given as “± (0-1)”.
As to `COC(=O)[C@H](CCSC)NC(=O)C1=C(COC(C)=O)CSC2C(NC(=O)Cc3cccs3)C(=O)N12` (stereo partly drawn) [Example 2, N-(1-carbomethoxy-3-thiomethylpropyl)-7-(thienyl-2-acetamido)cephalosporanic acid amide], in the data set on Escherichia coli (setting [5]), the “Logarithmic value … per one g of feces: E. coli” value is 6.4 Logarithmic value of the numbe. Also, in the data set with Pseudomonas aeruginosa (in vivo, po, 500 mg/kg/day), the “Logarithmic value of the number of bacterial cells per one g of feces: Ps. aeruginosa” value is < 3.0 Logarithmic value of the numbe. Moreover, in the data set on Streptococcus spp. (in vivo, po, 500 mg/kg/day), the “Logarithmic value of the number of bacterial cells per one g of feces: Strept. spp.” value was 6.6 Logarithmic value of the numbe. For the same compound, in data set [1] (in vivo, po, 500 mg/kg/day), the “Logarithmic value of the number of bacterial cells per one g of feces: L. acidophilus” value is reported as 8.9 Logarithmic value of the numbe. Also, in the data set with Lactobacillus bifidus (in vivo, po, 500 mg/kg/day), the “Logarithmic value of the number of bacterial cells per one g of feces: L. bifidus” value is given as 8.3 Logarithmic value of the numbe. Moreover, the “Logarithmic value of the number of bacterial cells per one g of feces: Bacteroides” value in the data set on Bacteroides (in vivo, po, 500 mg/kg/day) is 8.8 Logarithmic value of the numbe. In addition, the “MIC, E. coli” value in [2] is ≥ 100. Also, in data set [3], the “MIC, Staph. aureus” value is given as ≥ 12.5. In data set [4], the “Proliferation-inhibiting index … (control)” value is reported as “- (0)” and the “Proliferation-inhibiting index, after adding S-9 mix” value was “± (0-1)”.
Regarding `CCOC(=O)C(Cc1ccc(O)cc1)NC(=O)C1=C(COC(C)=O)CSC2C(NC(=O)Cc3cccs3)C(=O)N12` (stereo not drawn) [Example 3, N-[1-carboethoxy-2-(4-hydroxyphenyl)ethyl]-7-(thienyl-2-acetamido)cephalosporanic acid amide], the “Logarithmic value … per one g of feces: E. coli” value in the data set on Escherichia coli (setting [5]) is 6.5 Logarithmic value of the numbe. Moreover, the “Logarithmic value of the number of bacterial cells per one g of feces: Ps. aeruginosa” value in the data set with Pseudomonas aeruginosa (in vivo, po, 500 mg/kg/day) is listed as < 3.0 Logarithmic value of the numbe. Further, in the data set on Streptococcus spp. (in vivo, po, 500 mg/kg/day), the “Logarithmic value of the number of bacterial cells per one g of feces: Strept. spp.” value is 6.3 Logarithmic value of the numbe. In addition, in [1] (in vivo, po, 500 mg/kg/day), the “Logarithmic value of the number of bacterial cells per one g of feces: L. acidophilus” value is 8.9 Logarithmic value of the numbe. Further, the “Logarithmic value of the number of bacterial cells per one g of feces: L. bifidus” value in the data set on Lactobacillus bifidus (in vivo, po, 500 mg/kg/day) is given as 8.2 Logarithmic value of the numbe. Besides, in the data set with Bacteroides (in vivo, po, 500 mg/kg/day), the “Logarithmic value of the number of bacterial cells per one g of feces: Bacteroides” value is on record as 8.7 Logarithmic value of the numbe. In addition, the “MIC, E. coli” value in data set [2] is on record as ≥ 100. For the same compound, the “MIC, Staph. aureus” value in [3] was ≥ 12.5. For the same compound, in data set [4], the “Proliferation-inhibiting index … (control)” value is “- (0)” and the “Proliferation-inhibiting index, after adding S-9 mix” value was “± (0-1)”.
In the case of `COC(=O)CCC(NC(=O)C1=C(COC(C)=O)CSC2C(NC(=O)Cc3cccs3)C(=O)N12)C(=O)OC` (stereo not drawn) [Example 4, N-[1,3-bis(carbomethoxy)propyl]-7-(thienyl-2-acetamido)cephalosporanic acid amide], the “Logarithmic value … per one g of feces: E. coli” value with Escherichia coli (setting [5]) is 6.0 Logarithmic value of the numbe. In the data set on Pseudomonas aeruginosa (in vivo, po, 500 mg/kg/day), the “Logarithmic value of the number of bacterial cells per one g of feces: Ps. aeruginosa” value is < 3.9 Logarithmic value of the numbe. Further, the “Logarithmic value of the number of bacterial cells per one g of feces: Strept. spp.” value in the data set on Streptococcus spp. (in vivo, po, 500 mg/kg/day) is 7.0 Logarithmic value of the numbe. The “Logarithmic value of the number of bacterial cells per one g of feces: L. acidophilus” value in data set [1] (in vivo, po, 500 mg/kg/day) is recorded as 9.4 Logarithmic value of the numbe. In the data set with Lactobacillus bifidus (in vivo, po, 500 mg/kg/day), the “Logarithmic value of the number of bacterial cells per one g of feces: L. bifidus” value is 8.9 Logarithmic value of the numbe. Besides, the “Logarithmic value of the number of bacterial cells per one g of feces: Bacteroides” value with Bacteroides (in vivo, po, 500 mg/kg/day) is 8.3 Logarithmic value of the numbe. Moreover, the “MIC, E. coli” value in data set [2] is reported as ≥ 100. Also, in data set [3], the “MIC, Staph. aureus” value is reported as 12.5. Moreover, in data set [4], the “Proliferation-inhibiting index … (control)” value is recorded as “+ (1-33)” and the “Proliferation-inhibiting index, after adding S-9 mix” value is “++ (33-66)”.
